In paper PMC11672547, “Combination of Coevolutionary Information and Supervised Learning Enables Generation of Cyclic Peptide Inhibitors with Enhanced Potency from a Small Data Set” (ACS Central Science, 2024) one finds Ki data, which are given here for 13 molecules.

Numbered stars: 1 amine (or outer) side, 2 acyl side, 3 side chain; on linkers, the order of the positions; unused ones are H or OH. Bridge positions count the residues as written; N and C are the ends. Peptide text beside a SMILES is read from it. TBMB = c1c(C[*:1])cc(C[*:3])cc1C[*:2]

This experiment deals with T1, human urokinase-type plasminogen activator (huPA) (Homo sapiens, UniProt P00749).
T1 construct: (UPA-LMW, Molecular Innovations, Novi, MI, USA) 1.5 nM; purchased Molecular Innovations UPA-LMW
Description: huPA inhibition, fluorogenic enzyme activity assay (Z-Gly-Gly-Arg-AMC), Ki by Cheng-Prusoff. The experiment is classed as biochemical. To be noted: 25 °C, pH 7.4, substrate 50 μM, mean ± S.E. of at least three measurements, read-out: Ki. As to the method: bicyclic peptides. The activity assay was performed by incubating […] huPA with 50 μM fluorogenic substrate Z-Gly-Gly-Arg-AMC (50 μM; Bachem, Bubendorf, Switzerland) and […]
NaCl, 10 mM MgCl2, 1mM CaCl2, 0.1% w/v BSA, 0.01% v/v Triton-X100 and 5% v/v DMSO.
The measurements were performed on a Tecan microplate reader (Tecan infinite 200 pro, Tecan Trading AG, Switzerland) using black microfluor 96-well plate Nunc MicroWell, (Thermo Fisher Scientific, Dreieich, Germany) The enzymatic reactions were performed at 25 °C for 30 min, under shacking with an excitation wavelength of 355 nm and an emission recording at 460 nm. The initial velocities were monitored as changes in fluorescence intensity. The sigmoidal curves were fitted to the data using the following non-linear regression equation for the inhibitory dose-response curves with variable slope (2): […]
where x is the peptide concentration, y is the residual percentage of protease activity and p is the hill slope. Half maximum inhibitory concentration (IC50) values were derived from the fitted curves from GraphPad Prism 8 8.0.0. software (GraphPad software, Inc., San Diego, California). The final Ki was subsequently determined using the Cheng-Prusoff equation (3): […]
where Km (115 μM) is the Michaelis constant for the hydrolysis of Z-Gly-Gly-Arg-AMC catalysed by huPA which has been determined by standard Michaelis-Menten equation.
Values were determined using either OriginPro 8G software (OriginLab Corporation, Northamppton, MA, USA) or GraphPad Prism 8.0.0. software (GraphPad software, Inc., San […]
Recombinant production of the catalytic domain of human urokinase-type […]
The low molecular weight (LMW) human urokinase-type plasminogen activator (huPA) comprising the truncated 23 amino acid peptide fragment of chain A (Lys136-Lys158 in […]
Consider `CC(C)[C@@H]1NC(=O)[C@H](CCC(=O)O)NC(=O)[C@H](Cc2ccc(O)cc2)NC(=O)[C@H](CCCN=C(N)N)NC(=O)[C@H](CO)NC(=O)[C@@H](NC(=O)[C@H](C)N)CSCc2cc3cc(c2)CSC[C@H](NC(=O)[C@H](CC(=O)O)NC1=O)C(=O)N[C@@H](CCCN=C(N)N)C(=O)NCC(=O)N[C@@H](CCCN=C(N)N)C(=O)NCC(=O)N[C@@H](CO)C(=O)N[C@@H](C)C(=O)N[C@H](C(=O)NCC(N)=O)CSC3` [UK18, reference compound] (H-ACSRYEVDCRGRGSACG-NH2; linker 2-9-16 via TBMB), for which the Ki was found to be 0.0547 ± 0.008 µM.
Take `CC(C)[C@@H]1NC(=O)CNC(=O)CNC(=O)[C@H](CCCNC(=N)N)NC(=O)CNC(=O)[C@H](CCCNC(=N)N)NC(=O)[C@@H]2CSCc3cc(cc(c3)CSC[C@@H](C(=O)NCC(N)=O)NC1=O)CSC[C@H](NC(=O)[C@H](C)N)C(=O)N[C@@H](CC(=O)O)C(=O)N[C@@H](CCCNC(=N)N)C(=O)N[C@@H](Cc1ccccc1)C(=O)N[C@@H](C(C)C)C(=O)N[C@@H](C(C)C)C(=O)N[C@@H](CC(=O)O)C(=O)N2` [UK956] (H-ACDRFVVDCRGRGGVCG-NH2; linker 2-9-16 via TBMB): the Ki was 0.0947 ± 0.0003 µM.
As to `CC(C)[C@@H]1NC(=O)[C@H](Cc2ccccc2)NC(=O)[C@H](CCCNC(=N)N)NC(=O)[C@H](CC(=O)O)NC(=O)[C@@H](NC(=O)[C@H](C)N)CSCc2cc3cc(c2)CSC[C@@H](C(=O)NCC(N)=O)NC(=O)[C@@H]2CCCN2C(=O)CNC(=O)CNC(=O)[C@H](CCCNC(=N)N)NC(=O)CNC(=O)[C@H](CCCNC(=N)N)NC(=O)[C@H](CSC3)NC(=O)[C@H](CC(=O)O)NC(=O)[C@H](C(C)C)NC1=O` [UK957] (H-ACDRFVVDCRGRGGPCG-NH2; linker 2-9-16 via TBMB), the Ki worked out at 0.0074 ± 0.0009 µM.
In the case of `CC(C)[C@@H]1NC(=O)[C@H](CO)NC(=O)CNC(=O)[C@H](CCCNC(=N)N)NC(=O)CNC(=O)[C@H](CCCNC(=N)N)NC(=O)[C@@H]2CSCc3cc(cc(c3)CSC[C@@H](C(=O)NCC(N)=O)NC1=O)CSC[C@H](NC(=O)[C@H](C)N)C(=O)N[C@@H](CC(=O)O)C(=O)N[C@@H](CCCNC(=N)N)C(=O)N[C@@H](Cc1ccccc1)C(=O)N[C@@H](C(C)C)C(=O)N[C@@H](C(C)C)C(=O)N[C@@H](CC(=O)O)C(=O)N2` [UK958] (H-ACDRFVVDCRGRGSVCG-NH2; linker 2-9-16 via TBMB), the Ki turned out to be 0.1549 ± 0.001 µM.
With `CC(C)[C@@H]1NC(=O)[C@H](Cc2ccccc2)NC(=O)[C@H](CCCNC(=N)N)NC(=O)[C@H](CC(=O)O)NC(=O)[C@@H](NC(=O)[C@H](C)N)CSCc2cc3cc(c2)CSC[C@@H](C(=O)NCC(N)=O)NC(=O)[C@@H]2CCCN2C(=O)[C@H](CO)NC(=O)CNC(=O)[C@H](CCCNC(=N)N)NC(=O)CNC(=O)[C@H](CCCNC(=N)N)NC(=O)[C@H](CSC3)NC(=O)[C@H](CC(=O)O)NC(=O)[C@H](C(C)C)NC1=O` [UK959] (H-ACDRFVVDCRGRGSPCG-NH2; linker 2-9-16 via TBMB), the Ki turned out to be 0.0775 ± 0.0002 µM.
Regarding `CC(C)[C@@H]1NC(=O)CNC(=O)CNC(=O)[C@H](CCCNC(=N)N)NC(=O)CNC(=O)[C@H](CCCNC(=N)N)NC(=O)[C@@H]2CSCc3cc(cc(c3)CSC[C@@H](C(=O)NCC(N)=O)NC1=O)CSC[C@H](NC(=O)[C@H](C)N)C(=O)N[C@@H](CC(=O)O)C(=O)N[C@@H](CCCNC(=N)N)C(=O)N[C@@H](Cc1ccccc1)C(=O)N[C@@H](CCC(=O)O)C(=O)N[C@@H](C(C)C)C(=O)N[C@@H](CC(=O)O)C(=O)N2` [UK960] (H-ACDRFEVDCRGRGGVCG-NH2; linker 2-9-16 via TBMB), the inhibition constant Ki stood at 0.0812 ± 0.0003 µM.
As for `CC(C)[C@@H]1NC(=O)[C@H](CCC(=O)O)NC(=O)[C@H](Cc2ccccc2)NC(=O)[C@H](CCCNC(=N)N)NC(=O)[C@H](CC(=O)O)NC(=O)[C@@H](NC(=O)[C@H](C)N)CSCc2cc3cc(c2)CSC[C@@H](C(=O)NCC(N)=O)NC(=O)[C@@H]2CCCN2C(=O)CNC(=O)CNC(=O)[C@H](CCCNC(=N)N)NC(=O)CNC(=O)[C@H](CCCNC(=N)N)NC(=O)[C@H](CSC3)NC(=O)[C@H](CC(=O)O)NC1=O` [UK961] (H-ACDRFEVDCRGRGGPCG-NH2; linker 2-9-16 via TBMB), the Ki turned out to be 0.0162 µM.
Consider `CC(C)[C@@H]1NC(=O)[C@H](CO)NC(=O)CNC(=O)[C@H](CCCNC(=N)N)NC(=O)CNC(=O)[C@H](CCCNC(=N)N)NC(=O)[C@@H]2CSCc3cc(cc(c3)CSC[C@@H](C(=O)NCC(N)=O)NC1=O)CSC[C@H](NC(=O)[C@H](C)N)C(=O)N[C@@H](CC(=O)O)C(=O)N[C@@H](CCCNC(=N)N)C(=O)N[C@@H](Cc1ccccc1)C(=O)N[C@@H](CCC(=O)O)C(=O)N[C@@H](C(C)C)C(=O)N[C@@H](CC(=O)O)C(=O)N2` [UK962] (H-ACDRFEVDCRGRGSVCG-NH2; linker 2-9-16 via TBMB), for which the Ki was 0.081 ± 0.0079 µM.
On to `CC(C)[C@@H]1NC(=O)[C@H](CCC(=O)O)NC(=O)[C@H](Cc2ccccc2)NC(=O)[C@H](CCCNC(=N)N)NC(=O)[C@H](CC(=O)O)NC(=O)[C@@H](NC(=O)[C@H](C)N)CSCc2cc3cc(c2)CSC[C@@H](C(=O)NCC(N)=O)NC(=O)[C@@H]2CCCN2C(=O)[C@H](CO)NC(=O)CNC(=O)[C@H](CCCNC(=N)N)NC(=O)CNC(=O)[C@H](CCCNC(=N)N)NC(=O)[C@H](CSC3)NC(=O)[C@H](CC(=O)O)NC1=O` [UK963] (H-ACDRFEVDCRGRGSPCG-NH2; linker 2-9-16 via TBMB), for which the inhibitory constant (Ki) amounted to 0.0814 ± 0.0009 µM.
As for `CC(C)[C@@H]1NC(=O)[C@H](CCC(=O)O)NC(=O)[C@H](Cc2ccc(O)cc2)NC(=O)[C@H](CCCNC(=N)N)NC(=O)[C@H](CO)NC(=O)[C@@H](NC(=O)[C@H](C)N)CSCc2cc3cc(c2)CSC[C@@H](C(=O)NCC(N)=O)NC(=O)[C@@H]2CCCN2C(=O)[C@H](CO)NC(=O)CNC(=O)[C@H](CCCNC(=N)N)NC(=O)CNC(=O)[C@H](CCCNC(=N)N)NC(=O)[C@H](CSC3)NC(=O)[C@H](CC(=O)O)NC1=O` [UK964] (H-ACSRYEVDCRGRGSPCG-NH2; linker 2-9-16 via TBMB), the Ki was 0.0314 ± 0.0001 µM.
As for `CC(C)[C@@H]1NC(=O)[C@H](CCC(=O)O)NC(=O)[C@H](Cc2ccc(O)cc2)NC(=O)[C@H](CCCNC(=N)N)NC(=O)[C@H](CO)NC(=O)[C@@H](NC(=O)[C@H](C)N)CSCc2cc3cc(c2)CSC[C@@H](C(=O)NCC(N)=O)NC(=O)[C@@H]2CCCN2C(=O)CNC(=O)CNC(=O)[C@H](CCCNC(=N)N)NC(=O)CNC(=O)[C@H](CCCNC(=N)N)NC(=O)[C@H](CSC3)NC(=O)[C@H](CC(=O)O)NC1=O` [UK965] (H-ACSRYEVDCRGRGGPCG-NH2; linker 2-9-16 via TBMB), the figure is 0.0123 ± 0.001 µM; as for `CC(C)[C@@H]1NC(=O)[C@H](CCC(=O)O)NC(=O)[C@H](Cc2ccc(O)cc2)NC(=O)[C@H](CCCNC(=N)N)NC(=O)[C@H](CC(=O)O)NC(=O)[C@@H](NC(=O)[C@H](C)N)CSCc2cc3cc(c2)CSC[C@@H](C(=O)NCC(N)=O)NC(=O)[C@@H]2CCCN2C(=O)CNC(=O)CNC(=O)[C@H](CCCNC(=N)N)NC(=O)CNC(=O)[C@H](CCCNC(=N)N)NC(=O)[C@H](CSC3)NC(=O)[C@H](CC(=O)O)NC1=O` [UK966] (H-ACDRYEVDCRGRGGPCG-NH2; linker 2-9-16 via TBMB), 0.0116 ± 0.0012 µM; as for `CC(C)[C@@H]1NC(=O)[C@H](CCC(=O)O)NC(=O)[C@H](Cc2ccccc2)NC(=O)[C@H](CCCNC(=N)N)NC(=O)[C@H](CO)NC(=O)[C@@H](NC(=O)[C@H](C)N)CSCc2cc3cc(c2)CSC[C@@H](C(=O)NCC(N)=O)NC(=O)[C@@H]2CCCN2C(=O)CNC(=O)CNC(=O)[C@H](CCCNC(=N)N)NC(=O)CNC(=O)[C@H](CCCNC(=N)N)NC(=O)[C@H](CSC3)NC(=O)[C@H](CC(=O)O)NC1=O` [UK967] (H-ACSRFEVDCRGRGGPCG-NH2; linker 2-9-16 via TBMB), 0.0181 ± 0.0003 µM.

As usually defined, the Ki is a dissociation constant, usually derived from enzyme kinetics or from competition with a known ligand.
